The values that follow are results of earlier work, collected in patent US8329187B2, “Compositions of spores of non pathogenic bacteria” (Neuroscienze Pharmaness S.C. A.R.L., priority 2009, dated 2012).

For this series, the system named is gastrointestinal transit. Conditions: shown in example 6 of EP 1,602,658.

Take `Cc1c(C(=O)c2cccc3ccccc23)c2cccc3c2n1[C@H](CN1CCOCC1)CO3` [WIN 55.212-2]: the “effect on gastrointestinal transit (constipating activity)” value is “slackens the gastrointestinal transit”.
